Measurements: ChEMBL document CHEMBL3886432, “Purinylpyridinylamino-2,4-difluorophenyl sulfonamide derivative, pharmaceutically acceptable salt thereof, preparation method thereof, and pharmaceutical composition with inhibitory activity against Raf kinase, containing same as active ingredient” (2015)

Molecular target: Serine/threonine-protein kinase B-raf (Homo sapiens, UniProt P15056)
Test: The solutions in the tube were collected on the bottom via centrifugation and were reacted at 30° C. for 30 minutes.

Sequence of Serine/threonine-protein kinase B-raf (P15056 whole entry): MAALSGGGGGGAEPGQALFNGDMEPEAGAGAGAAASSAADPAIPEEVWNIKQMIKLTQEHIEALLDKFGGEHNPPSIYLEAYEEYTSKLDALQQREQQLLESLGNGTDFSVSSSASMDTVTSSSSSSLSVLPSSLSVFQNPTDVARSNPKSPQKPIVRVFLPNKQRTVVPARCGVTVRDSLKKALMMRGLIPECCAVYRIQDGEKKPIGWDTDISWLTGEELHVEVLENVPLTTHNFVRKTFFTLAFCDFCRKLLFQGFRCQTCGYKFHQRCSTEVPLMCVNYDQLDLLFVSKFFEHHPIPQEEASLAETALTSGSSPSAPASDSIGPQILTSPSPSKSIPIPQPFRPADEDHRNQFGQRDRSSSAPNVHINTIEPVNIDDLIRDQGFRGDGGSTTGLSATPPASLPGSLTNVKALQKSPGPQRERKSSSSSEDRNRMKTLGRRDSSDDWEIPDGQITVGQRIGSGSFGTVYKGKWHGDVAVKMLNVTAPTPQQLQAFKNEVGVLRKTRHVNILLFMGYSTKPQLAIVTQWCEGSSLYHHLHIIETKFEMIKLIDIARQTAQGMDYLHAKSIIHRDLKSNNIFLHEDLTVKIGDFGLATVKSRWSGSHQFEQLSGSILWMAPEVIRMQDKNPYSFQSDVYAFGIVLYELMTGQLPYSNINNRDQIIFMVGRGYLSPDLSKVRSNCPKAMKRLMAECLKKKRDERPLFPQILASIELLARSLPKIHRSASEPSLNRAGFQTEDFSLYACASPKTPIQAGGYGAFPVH

IC50: 20 nM
Structure (SMILES): O=S(=O)(Nc1ccc(F)c(Nc2ncccc2-c2ncnc3[nH]cnc23)c1F)c1ccc(Cl)s1
